Test results taken from US20050004124A1, “THERAPIES RELATING TO COMBINATIONS OF ALDOSE REDUCTASE INHIBITORS AND CYCLOOXYGENASE-2 INHIBITORS” (priority 2001, published 2005).

melting point [°C]	SMILES
250	O=c1ccc(S(=O)(=O)c2[nH]c3ccccc3c2Cl)n[nH]1 [Example 36, 6-(3-Chloro-indole-2-sulfonyl)-2H-pyridazin-3-one]
233 to 235	Cn1c(S(=O)(=O)c2ccc(=O)[nH]n2)cc2ccccc21 [Example 40, 6-(N-Methylindole-2-sulfonyl)-2H-pyridazin-3-one]
186 to 189	O=c1ccc(S(=O)(=O)c2oc3ccccc3c2O)n[nH]1 [Example 16, 6-(3-Hydroxy-benzofuran-2-sulfonyl)-2H-pyridazin-3-one]
